Patent publication US20220152082A1, “Methods for Cancer Diagnosis, Prognosis or Treatment” (AnPac Bio-Medical Science Co., Ltd., priority 2019, published 2022)

Experiments:
LINC00472 [1] = assay: qRT-PCR of LINC00472 expression, T47D; format: cell-based, human; conditions: 10 μM, 8 days
Description: Total RNA was extracted from fresh-frozen tumor samples and cultured tumor cells using the […] kit (Qiagen). RNA samples were reverse-transcribed (RT) to cDNA using the cDNA Reverse Transcription kit (LifeTech), and analyzed for LINC00472 expression with real-time PCR (qPCR). Breast cancer cells were transfected with Lincode Human LINC00472 (79940) siRNA-SMART pool (D-001320-10-05) or Lincode Non-targeting Pool (D-001320-10-05), negative control from Dharmacon, following the manufacturer's protocol for Lipofectamine RNAiMAX (Thermo Fisher Scientific). The method of transfection was known in the art. Cell lysates were prepared for analysis after 36 hours of incubation of the transfected cells. […] After eight days of culture, cells were collected, and total RNA and proteins were extracted for qRT-PCR analysis of LINC00472 and western blot of ERα and NF-κB, respectively.

NF-κB = assay: Western blot of p65 and IκBα phosphorylation, T47D; format: cell-based, human; conditions: 10 μM, 8 days
LINC00472 [2] = assay: TNF-α treatment, LINC00472 expression; format: cell-based; conditions: breast cancer cells, TNF-α 10 ng/ml, 24 hours
Method: Total RNA was extracted from fresh-frozen tumor samples and cultured tumor cells using the Allprep DNA/RNA kit (Qiagen). RNA samples were reverse-transcribed (RT) to cDNA using the cDNA Reverse Transcription kit (LifeTech), and analyzed for LINC00472 expression with real-time PCR (qPCR).
TNF-α (Sigma-Aldrich), diluted in the culture medium immediately before experiment, was added to cultured cells with a final concentration of 10 ng/ml. The cells were incubated for 24 hours before analysis. DMSO (Sigma-Aldrich) treated cells were used as control. Total RNA and proteins were extracted for analysis of LINC00472 expression and NF-κB activation.

Molecule	expression of LINC00472 (LINC00472 [1])	expression of LINC00472 (LINC00472 [1]; listed as tamoxifen)	phosphorylation of p65 and IκBα (NF-κB)	LINC00472 expression (LINC00472 [2])
CC/C(=C(\c1ccc(O)cc1)c1ccc(OCCN(C)C)cc1)c1ccccc1 [4-hydroxytamoxifen, 4-Hydroxytamoxifen]	decreased	lowered	increased	–
TNF-α	–	–	–	no effect
